Reference: patent US20250270200A1, “CTPS1 INHIBITORS AND USES THEREOF” (Nimbus Clotho, Inc., priority 2022, published 2025)

Biological target: T1, human CTPS1 (Homo sapiens, UniProt P17812)
T1 sequence (P17812 1-591): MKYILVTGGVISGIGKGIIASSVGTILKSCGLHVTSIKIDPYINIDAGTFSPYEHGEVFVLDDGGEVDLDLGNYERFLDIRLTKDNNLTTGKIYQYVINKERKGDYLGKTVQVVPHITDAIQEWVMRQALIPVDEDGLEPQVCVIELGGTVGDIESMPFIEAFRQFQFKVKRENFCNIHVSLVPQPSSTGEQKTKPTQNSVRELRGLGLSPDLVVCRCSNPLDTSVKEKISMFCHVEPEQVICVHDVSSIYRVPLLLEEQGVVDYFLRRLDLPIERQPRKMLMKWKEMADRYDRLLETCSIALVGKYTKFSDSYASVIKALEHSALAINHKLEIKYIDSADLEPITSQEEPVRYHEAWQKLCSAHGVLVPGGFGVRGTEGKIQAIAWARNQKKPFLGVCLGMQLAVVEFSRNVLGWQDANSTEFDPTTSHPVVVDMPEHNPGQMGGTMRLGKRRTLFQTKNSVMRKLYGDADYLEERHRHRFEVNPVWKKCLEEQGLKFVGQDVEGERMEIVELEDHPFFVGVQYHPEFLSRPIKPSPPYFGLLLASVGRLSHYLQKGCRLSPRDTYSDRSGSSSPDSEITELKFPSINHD
Assay: ADP-Glo assay, human CTPS1 enzyme inhibition
Format: biochemical
Conditions: wild-type human CTPS1, 25 nM enzyme; ADP-Glo; read-out: ADP-Glo_WT_hCTPS1—25 nM_IC50 (IC50)
Method in brief: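 Full-length tagged human CTPS1 (25 nM) pre-incubated 10 min at 25° C with compound, then 10 min with ATP (120 μM) and UTP (160 μM); reaction started with L-glutamine (100 μM) and GTP (60 μM), 1% DMSO, in HEPES pH 7.4, 10 mM Mg2+, 5 mM KCl, 2 mM DTT. Run within linear phase at 25° C; ADP measured by ADP-Glo luminescence.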

Row | IC50 | SMILES
1 | 50 to 100 nM | C[C@@H](CN1CCCCC1)[C@H](NC(=O)c1ncc(-c2cnn3ccc(Cl)cc23)s1)c1cc(NS(=O)(=O)C2CC2)ccn1 [I-58, 5-(5-chloropyrazolo[1,5-a]pyridin-3-yl)-N-((1S,2S)-1-(4-(cyclopropanesulfonamido)pyridin-2-yl)-2-methyl-3-(piperidin-1-yl)propyl)thiazole-2-carboxamide]
2 | 25 to 50 nM | CCOc1cncc(-c2cnc(C(=O)N[C@H](c3cc(NS(=O)(=O)C4CC4)ccn3)[C@H]3CCCO3)s2)n1 [I-59, N-((R)-(4-(cyclopropanesulfonamido)pyridin-2-yl)((R)-tetrahydrofuran-2-yl)methyl)-5-(6-ethoxypyrazin-2-yl)thiazole-2-carboxamide]
3 | 5 to 25 nM | CCOc1cncc(-c2cnc(C(=O)N[C@H](c3cc(NS(=O)(=O)C4CC4)ccn3)[C@@H]3CCCO3)s2)n1 [I-60, N-((R)-(4-(cyclopropanesulfonamido)pyridin-2-yl)((S)-tetrahydrofuran-2-yl)methyl)-5-(6-ethoxypyrazin-2-yl)thiazole-2-carboxamide]
4 | 5 to 25 nM | CCOc1cncc(-c2cnc(C(=O)N[C@@H](c3cc(NS(=O)(=O)C4CC4)ccn3)[C@@H]3CCCO3)s2)n1 [I-61, N-((S)-(4-(cyclopropanesulfonamido)pyridin-2-yl)((S)-tetrahydrofuran-2-yl)methyl)-5-(6-ethoxypyrazin-2-yl)thiazole-2-carboxamide]
5 | 5 to 25 nM | CCOc1cncc(-c2cnc(C(=O)N[C@@H](c3cc(NS(=O)(=O)C4CC4)ccn3)[C@H]3CCCO3)s2)n1 [I-62, N-((S)-(4-(cyclopropanesulfonamido)pyridin-2-yl)((R)-tetrahydrofuran-2-yl)methyl)-5-(6-ethoxypyrazin-2-yl)thiazole-2-carboxamide]
6 | > 100 nM | CCOc1cncc(-c2cnc(C(=O)N(C)[C@H](c3cc(NS(=O)(=O)C4CC4)ccn3)[C@H]3CCOC3)s2)n1 [I-63, N-((S)-(4-(cyclopropanesulfonamido)pyridin-2-yl)((R)-tetrahydrofuran-3-yl)methyl)-5-(6-ethoxypyrazin-2-yl)-N-methylthiazole-2-carboxamide]
7 | 50 to 100 nM | CCOc1cncc(-c2cnc(C(=O)N(C)[C@H](c3cc(NS(=O)(=O)C4CC4)ccn3)[C@@H]3CCOC3)s2)n1 [I-64, N-((S)-(4-(cyclopropanesulfonamido)pyridin-2-yl)((S)-tetrahydrofuran-3-yl)methyl)-5-(6-ethoxypyrazin-2-yl)-N-methylthiazole-2-carboxamide]
8 | > 100 nM | CCOc1cncc(-c2cnc(C(=O)N(C)[C@@H](c3cc(NS(=O)(=O)C4CC4)ccn3)[C@H]3CCOC3)s2)n1 [I-65, N-((R)-(4-(cyclopropanesulfonamido)pyridin-2-yl)((R)-tetrahydrofuran-3-yl)methyl)-5-(6-ethoxypyrazin-2-yl)-N-methylthiazole-2-carboxamide]
9 | 25 to 50 nM | CCOc1cncc(-c2cnc(C(=O)N(C)[C@@H](c3cc(NS(=O)(=O)C4CC4)ccn3)[C@@H]3CCOC3)s2)n1 [I-66, N-((R)-(4-(cyclopropanesulfonamido)pyridin-2-yl)((S)-tetrahydrofuran-3-yl)methyl)-5-(6-ethoxypyrazin-2-yl)-N-methylthiazole-2-carboxamide]
10 | 25 to 50 nM | CCOc1cncc(-c2ccc(C(=O)N[C@H](c3cc(NS(=O)(=O)C4CC4)ccn3)[C@H]3CCCO3)nc2)n1 [I-67, N-((R)-(4-(cyclopropanesulfonamido)pyridin-2-yl)((R)-tetrahydrofuran-2-yl)methyl)-5-(6-ethoxypyrazin-2-yl)picolinamide]
11 | 25 to 50 nM | CCOc1cncc(-c2ccc(C(=O)N[C@H](c3cc(NS(=O)(=O)C4CC4)ccn3)[C@@H]3CCCO3)nc2)n1 [I-68, N-((R)-(4-(cyclopropanesulfonamido)pyridin-2-yl)((S)-tetrahydrofuran-2-yl)methyl)-5-(6-ethoxypyrazin-2-yl)picolinamide]
12 | 25 to 50 nM | CCOc1cncc(-c2ccc(C(=O)N[C@@H](c3cc(NS(=O)(=O)C4CC4)ccn3)[C@@H]3CCCO3)nc2)n1 [I-69, N-((S)-(4-(cyclopropanesulfonamido)pyridin-2-yl)((S)-tetrahydrofuran-2-yl)methyl)-5-(6-ethoxypyrazin-2-yl)picolinamide]
13 | 25 to 50 nM | CCOc1cncc(-c2ccc(C(=O)N[C@@H](c3cc(NS(=O)(=O)C4CC4)ccn3)[C@H]3CCCO3)nc2)n1 [I-70, N-((S)-(4-(cyclopropanesulfonamido)pyridin-2-yl)((R)-tetrahydrofuran-2-yl)methyl)-5-(6-ethoxypyrazin-2-yl)picolinamide]
14 | 5 to 25 nM | CCOc1cncc(-c2cnc(C(=O)N[C@H](c3cc(NS(=O)(=O)C4CC4)ccn3)[C@H]3COCCO3)s2)n1 [I-73, N-((R)-(4-(cyclopropanesulfonamido)pyridin-2-yl)((S)-1,4-dioxan-2-yl)methyl)-5-(6-ethoxypyrazin-2-yl)thiazole-2-carboxamide]
15 | 5 to 25 nM | CCOc1cncc(-c2cnc(C(=O)N[C@H](c3cc(NS(=O)(=O)C4CC4)ccn3)[C@@H]3COCCO3)s2)n1 [I-74, N-((R)-(4-(cyclopropanesulfonamido)pyridin-2-yl)((R)-1,4-dioxan-2-yl)methyl)-5-(6-ethoxypyrazin-2-yl)thiazole-2-carboxamide]
16 | 5 to 25 nM | CCOc1cncc(-c2cnc(C(=O)N[C@@H](c3cc(NS(=O)(=O)C4CC4)ccn3)[C@H]3COCCO3)s2)n1 [I-75, N-((S)-(4-(cyclopropanesulfonamido)pyridin-2-yl)((S)-1,4-dioxan-2-yl)methyl)-5-(6-ethoxypyrazin-2-yl)thiazole-2-carboxamide]
17 | ≤ 5 nM | CCOc1cncc(-c2cnc(C(=O)N[C@@H](c3cc(NS(=O)(=O)C4CC4)ccn3)[C@@H]3COCCO3)s2)n1 [I-76, N-((S)-(4-(cyclopropanesulfonamido)pyridin-2-yl)((R)-1,4-dioxan-2-yl)methyl)-5-(6-ethoxypyrazin-2-yl)thiazole-2-carboxamide]
18 | 5 to 25 nM | O=C(N[C@H](c1cc(NS(=O)(=O)C2CC2)ccn1)[C@H]1COCCO1)c1ncc(-c2cnn3ccc(Cl)cc23)s1 [I-77, 5-(5-chloropyrazolo[1,5-a]pyridin-3-yl)-N-((R)-(4-(cyclopropanesulfonamido)pyridin-2-yl)((S)-1,4-dioxan-2-yl)methyl)thiazole-2-carboxamide]
19 | 5 to 25 nM | O=C(N[C@H](c1cc(NS(=O)(=O)C2CC2)ccn1)[C@@H]1COCCO1)c1ncc(-c2cnn3ccc(Cl)cc23)s1 [I-78, 5-(5-chloropyrazolo[1,5-a]pyridin-3-yl)-N-((R)-(4-(cyclopropanesulfonamido)pyridin-2-yl)((R)-1,4-dioxan-2-yl)methyl)thiazole-2-carboxamide]
20 | 5 to 25 nM | O=C(N[C@@H](c1cc(NS(=O)(=O)C2CC2)ccn1)[C@@H]1COCCO1)c1ncc(-c2cnn3ccc(Cl)cc23)s1 [I-79, 5-(5-chloropyrazolo[1,5-a]pyridin-3-yl)-N-((S)-(4-(cyclopropanesulfonamido)pyridin-2-yl)((R)-1,4-dioxan-2-yl)methyl)thiazole-2-carboxamide]
21 | 5 to 25 nM | O=C(N[C@@H](c1cc(NS(=O)(=O)C2CC2)ccn1)[C@H]1COCCO1)c1ncc(-c2cnn3ccc(Cl)cc23)s1 [I-80, 5-(5-chloropyrazolo[1,5-a]pyridin-3-yl)-N-((S)-(4-(cyclopropanesulfonamido)pyridin-2-yl)((S)-1,4-dioxan-2-yl)methyl)thiazole-2-carboxamide]
22 | ≤ 5 nM | CCOc1cncc(-c2cnc(C(=O)N[C@@H](c3cc(NS(=O)(=O)C4CC4)ccn3)[C@@H]3C[C@@H]4CC[C@H]3O4)s2)n1 [I-81, N-((R)-((1R,2S,4S)-7-oxabicyclo[2.2.1]heptan-2-yl)(4-(cyclopropanesulfonamido)pyridin-2-yl)methyl)-5-(6-ethoxypyrazin-2-yl)thiazole-2-carboxamide]
23 | ≤ 5 nM | CCOc1cncc(-c2cnc(C(=O)N[C@H](c3cc(NS(=O)(=O)C4CC4)ccn3)[C@@H]3C[C@@H]4CC[C@H]3O4)s2)n1 [I-82, N-((S)-((1R,2S,4S)-7-oxabicyclo[2.2.1]heptan-2-yl)(4-(cyclopropanesulfonamido)pyridin-2-yl)methyl)-5-(6-ethoxypyrazin-2-yl)thiazole-2-carboxamide]
24 | 5 to 25 nM | CCOc1cncc(-c2cnc(C(=O)N[C@H](c3cc(NS(=O)(=O)C4CC4)ccn3)[C@H]3C[C@H]4CC[C@@H]3O4)s2)n1 [I-83, N-((S)-((1S,2R,4R)-7-oxabicyclo[2.2.1]heptan-2-yl)(4-(cyclopropanesulfonamido)pyridin-2-yl)methyl)-5-(6-ethoxypyrazin-2-yl)thiazole-2-carboxamide]
25 | ≤ 5 nM | CCOc1cncc(-c2cnc(C(=O)N[C@@H](c3cc(NS(=O)(=O)C4CC4)ccn3)[C@H]3C[C@H]4CC[C@@H]3O4)s2)n1 [I-84, N-((R)-((1S,2R,4R)-7-oxabicyclo[2.2.1]heptan-2-yl)(4-(cyclopropanesulfonamido)pyridin-2-yl)methyl)-5-(6-ethoxypyrazin-2-yl)thiazole-2-carboxamide]
